# Measurements as given in article PMC8201173, “Inhibition of Carbonic Anhydrase IX Promotes Apoptosis through Intracellular pH Level Alterations in Cervical Cancer Cells” (International Journal of Molecular Sciences, 2021).
# Experiments:
# Format in all cases: cell-based
# [1] = test system: PNT1-A; experiment: WST-1 cytotoxicity assay, PNT1-A; details: Homo sapiens, PNT1A
# Protocol: (§1) We used cancer and normal cell lines purchased from ATCC (American Type Culture Collection) and ECACC (European Collection of Authenticated Cell Cultures) and stored in liquid nitrogen. HT-29 (ATCC: HTB-38, colon adenoma cancer), HeLa (ATCC: CCL-2, cervix adenoma cancer cell), MDA-MB-231 (ATCC: HTB-26, breast adenoma cancer cell), and HEK-293 (ATCC: CRL-1573, embryonic kidney epithelial cell) cell lines were incubated in DMEM-F12 (Sigma-Aldrich, Germany), including 10% Fetal Bovine Serum (FBS), 100 μg/mL streptomycin/100 IU/mL penicillin, at 37 °C in an incubator containing 5% CO2, 95% air in a humid atmosphere. PNT-1A (ECACC: 95012614, normal prostate cells) cell line was incubated in RPMI-1640 medium, including %10 FBS, 100 μg/mL streptomycin/100 IU/mL penicillin, at 37 °C in an incubator containing 5% CO2, 95% air in a humid atmosphere.
# (§2) The cytotoxic effects of compound E were evaluated with WST kit (Roche, Basel, Switzerland) in accordance with manufacturer protocols. The cells were planted in 96 well plates (10^4 cells per well). After 24 h of incubation, compound E at doses of 0, 2.5, 5, 10, 25, 50, 100, and 200 μM was administrated on the cell lines for 24, 48, and 72 h, and 5-FU on the control cell line with the same doses. WST-1 reactive of 10 µL was added in all wells. Following 4 h incubation, the measurements were carried out in a plate reader (Spectramax M5, BioTek, VT, USA) at wavelengths of 450 and 630 nm. Consequently, graphs were created, and the IC50 values of compound E and 5-fluorouracil were calculated. Selectivity index (SI) can be defined as the ratio of the toxic concentration of a sample against its effective compound concentration.
# [2] = test system: MDA-MB-231; experiment: WST-1 cytotoxicity assay, MDA-MB-231; details: Homo sapiens
# Protocol: (§3) We used cancer and normal cell lines purchased from ATCC (American Type Culture Collection) and ECACC (European Collection of Authenticated Cell Cultures) and stored in liquid nitrogen.
# (§4) The cells were planted in 96 well plates (10^4 cells per well). […] WST-1 reactive of 10 µL was added in all wells. Following 4 h incubation, the measurements were carried out in a plate reader (Spectramax M5, BioTek, VT, USA) at wavelengths of 450 and 630 nm.
# [3] = test system: HEK-293; experiment: WST-1 cytotoxicity assay, HEK-293; details: Homo sapiens
# Protocol: as §1, §2
# [4] = test system: HT-29; experiment: WST-1 cytotoxicity assay, HT-29; details: Homo sapiens
# Protocol: as §3, §4
# [5] = test system: HeLa cells; experiment: WST-1 cytotoxicity assay, HeLa; details: Homo sapiens
# Protocol: as §3, §4
smiles,measurement,setting,value
"O=c1[nH]cc(F)c(=O)[nH]1 [5-FU, 5-Fluorouracil, reference compound]",IC50,[1]; 24 h,23.1 ± 4.55 µM
same,IC50,[1]; 48 h,21.2 ± 2.2 µM
same,IC50,[1]; 72 h,17.5 ± 7.6 µM
same,IC50,"[2]; MDA-MB-231, 24 h",42.6 ± 2.56 µM
same,IC50,"[2]; MDA-MB-231, 48 h",37.9 ± 12.3 µM
same,IC50,"[2]; MDA-MB-231, 72 h",21 ± 4.3 µM
same,IC50,"[3]; HEK293, HEK-293, 24 h",44.6 ± 7.2 µM
same,IC50,"[3]; HEK293, HEK-293, 48 h",19.8 ± 2.3 µM
same,IC50,"[3]; HEK293, HEK-293, 72 h",14.5 ± 3.2 µM
same,IC50,"[4]; HT-29, 24 h",47.3 ± 1.2 µM
same,IC50,"[4]; HT-29, 48 h",23.4 ± 2.1 µM
same,IC50,"[4]; HT-29, 72 h",19.3 ± 1.2 µM
same,IC50,[5]; 24 h,37.8 ± 4.3 µM
same,IC50,[5]; 48 h,31.2 ± 2.3 µM
same,IC50,[5]; 72 h,14.7 ± 0.6 µM
